Patent publication US9109041B2, “Analog compounds of analgesic peptides derived from the venom of crotalus durissus terrificus snakes, their uses, compositions, methods of preparation and purification” (priority 2004, dated 2015)

Tested on: prostaglandin E2-induced hyperalgesia
Test: rat paw pressure test, prostaglandin E2-induced hyperalgesia
Settings: for 50% effective dose / 60% effective dose / 90% effective dose: reversal of PGE2-induced hyperalgesia, CurveExpert 1.3

Xaa-Phe-Ser-Pro-Glu-Asn-Cys-Gln-Gly-Glu-Ser-Gln-Pro-Cys [SEQ ID NO: 2]
pain threshold, IM (g) ± S.E.M. (0.00032 μg/kg i.v., before PGE2): 72 ± 1.84 g
pain threshold, FM (g) ± S.E.M (0.00032 μg/paw i.pl., 3 h after PGE2 100 ng/paw i.pl.): 60 ± 3.25 g
pain threshold, IM (g) ± S.E.M. (0.00032 μg/paw i.pl., before PGE2): 67 ± 2.35 g
pain threshold, FM (g) ± S.E.M (0.0016 μg/kg i.v., 3 h after PGE2 100 ng/paw i.pl.): 67 ± 2.35 g
pain threshold, IM (g) ± S.E.M. (0.0016 μg/kg i.v., before PGE2): 74 ± 0.92 g
pain threshold, FM (g) ± S.E.M (0.0016 μg/kg p.o., 3 h after PGE2 100 ng/paw i.pl.): 64 ± 1.00 g
pain threshold, IM (g) ± S.E.M. (0.0016 μg/kg p.o., before PGE2): 78 ± 1.22 g
pain threshold, FM (g) ± S.E.M (0.0016 μg/paw i.pl., 3 h after PGE2 100 ng/paw i.pl.): 67 ± 1.12 g
pain threshold, IM (g) ± S.E.M. (0.0016 μg/paw i.pl., before PGE2): 72 ± 1.84 g
pain threshold, FM (g) ± S.E.M (0.008 μg/kg i.v., 3 h after PGE2 100 ng/paw i.pl.): 73 ± 4.74 g
pain threshold, IM (g) ± S.E.M. (0.008 μg/kg i.v., before PGE2): 69 ± 2.26 g
pain threshold, FM (g) ± S.E.M (0.008 μg/kg p.o., 3 h after PGE2 100 ng/paw i.pl.): 71 ± 2.39 g
pain threshold, IM (g) ± S.E.M. (0.008 μg/kg p.o., before PGE2): 79 ± 1.25 g
pain threshold, FM (g) ± S.E.M (0.04 μg/kg p.o., 3 h after PGE2 100 ng/paw i.pl.): 75 ± 1.87 g
pain threshold, IM (g) ± S.E.M. (0.04 μg/kg p.o., before PGE2): 77 ± 1.22 g
pain threshold, FM (g) ± S.E.M (0.2 μg/kg p.o., 3 h after PGE2 100 ng/paw i.pl.): 84 ± 1.87 g
pain threshold, IM (g) ± S.E.M. (0.2 μg/kg p.o., before PGE2): 77 ± 2.00 g
pain threshold, FM (g) ± S.E.M (1 μg/kg p.o. + CTOP 20 μg/leg i.pl. with PGE2, 3 h after PGE2): 114 ± 1.87 g
pain threshold, IM (g) ± S.E.M. (1 μg/kg p.o. + CTOP 20 μg/leg i.pl., before PGE2): 77 ± 1.22 g
pain threshold, FM (g) ± S.E.M (1 μg/kg p.o. + ICI174,864 10 μg/paw i.pl. with PGE2, 3 h after PGE2): 114 ± 1.00 g
pain threshold, IM (g) ± S.E.M. (1 μg/kg p.o. + ICI174,864 10 μg/paw i.pl., before PGE2): 78 ± 1.22 g
pain threshold, FM (g) ± S.E.M (1 μg/kg p.o. + nor-Binalthorphimine 50 μg/leg i.pl. with PGE2, 3 h after PGE2): 56 ± 1.87 g
pain threshold, IM (g) ± S.E.M. (1 μg/kg p.o. + nor-Binalthorphimine 50 μg/leg i.pl., before PGE2): 77 ± 1.22 g
pain threshold, IM (g) ± S.E.M. (1 μg/kg p.o., 0 h, before administration (Table 6)): 79 ± 1.00 g
pain threshold, FM (g) ± S.E.M (1.0 μg/kg p.o., 3 h after PGE2 100 ng/paw i.pl. (Table 2)): 108 ± 2.00 g
pain threshold, FM (g) ± S.E.M (1 μg/kg p.o., 3 h after PGE2 100 ng/paw i.pl. (Table 7)): 111 ± 3.32 g
pain threshold, FM (g) ± S.E.M (1 μg/kg p.o., 24 h after administration, PGE2 100 ng/paw 3 h before measurement): 126 ± 3.32 g
pain threshold, FM (g) ± S.E.M (1 μg/kg p.o., 48 h after administration, PGE2 100 ng/paw 3 h before measurement): 121 ± 1.87 g
pain threshold, FM (g) ± S.E.M (1 μg/kg p.o., 72 h after administration, PGE2 100 ng/paw 3 h before measurement): 111 ± 4.3 g
pain threshold, FM (g) ± S.E.M (1 μg/kg p.o., 96 h after administration, PGE2 100 ng/paw 3 h before measurement): 117 ± 2.5 g
pain threshold, FM (g) ± S.E.M (1 μg/kg p.o., 120 h after administration, PGE2 100 ng/paw 3 h before measurement): 130 ± 2.24 g
pain threshold, FM (g) ± S.E.M (1 μg/kg p.o., 144 h after administration, PGE2 100 ng/paw 3 h before measurement): 59 ± 2.39 g
pain threshold, IM (g) ± S.E.M. (1.0 μg/kg p.o., before PGE2 (Table 2)): 77 ± 2.00 g
pain threshold, IM (g) ± S.E.M. (1 μg/kg p.o., before PGE2 (Table 7)): 77 ± 1.22 g
pain threshold, FM (g) ± S.E.M (5 μg/kg p.o. + ICI174,864 i.pl. with PGE2, 3 h after PGE2): 145 ± 2.89 g
pain threshold, IM (g) ± S.E.M. (5 μg/kg p.o. + ICI174,864 i.pl., before PGE2): 77 ± 1.05 g
pain threshold, FM (g) ± S.E.M (5 μg/kg p.o. + nor-BNI i.pl. with PGE2, 3 h after PGE2): 58 ± 2.47 g
pain threshold, IM (g) ± S.E.M. (5 μg/kg p.o. + nor-BNI i.pl., before PGE2): 77 ± 1.05 g
pain threshold, FM (g) ± S.E.M (5.0 μg/kg p.o., 3 h after PGE2 100 ng/paw i.pl. (Table 2)): 130 ± 1.58 g
pain threshold, FM (g) ± S.E.M (5 μg/kg p.o., 3 h after PGE2 100 ng/paw i.pl. (Table 8)): 147 ± 2.55 g
pain threshold, IM (g) ± S.E.M. (5.0 μg/kg p.o., before PGE2 (Table 2)): 78 ± 2.00 g
pain threshold, IM (g) ± S.E.M. (5 μg/kg p.o., before PGE2 (Table 8)): 77 ± 1.22 g
pain threshold, FM (g) ± S.E.M (25.0 μg/kg p.o., 3 h after PGE2 100 ng/paw i.pl.): 133 ± 3.39 g
pain threshold, IM (g) ± S.E.M. (25.0 μg/kg p.o., before PGE2): 79 ± 1.87 g
50% effective dose (intraplantar route): 0.000002327 µg/kg
60% effective dose (intraplantar route): 0.000004904 µg/kg
90% effective dose (intraplantar route): 0.002876 µg/kg
50% effective dose (intravenous route): 0.0000458 µg/kg
60% effective dose (intravenous route): 0.0002144 µg/kg
90% effective dose (intravenous route): 0.002701 µg/kg
duration of the antinociceptive effect (one single administration, 1 μg/kg p.o.): up to 120 hours
50% effective dose (oral route): 0.004146 µg/kg
60% effective dose (oral route): 0.006348 µg/kg
90% effective dose (oral route): 0.02106 µg/kg
opioid receptors involved in the antinociceptive effect (peptide 1 μg/kg p.o., delta, kappa, mu antagonists i.pl.): kappa opioid receptors are involved
opioid receptors involved in the antinociceptive activity (peptide 5 μg/kg p.o., kappa and delta antagonists i.pl.): kappa opioid receptors are involved
analgesic activity (synthetic peptides compared with natural ENPAK-k, similar conditions): same analgesic activity as the natural ENPAK-k
